Measured values published in ChEMBL document CHEMBL4350985, “1,3-Dioxane as a scaffold for potent and selective 5-HT1AR agonist with in-vivo anxiolytic, anti-depressant and anti-nociceptive activity” (Eur J Med Chem, 2019).

What was measured:
[1] = biological target: T1, Alpha-1A adrenergic receptor (Rattus norvegicus) (UniProt P43140); experiment: Antagonist activity at alpha-1a adrenergic receptor in Wistar rat prostatic vas deferens assessed as inhibition of (-)-noradrenaline-induced contraction
T1 sequence (whole entry): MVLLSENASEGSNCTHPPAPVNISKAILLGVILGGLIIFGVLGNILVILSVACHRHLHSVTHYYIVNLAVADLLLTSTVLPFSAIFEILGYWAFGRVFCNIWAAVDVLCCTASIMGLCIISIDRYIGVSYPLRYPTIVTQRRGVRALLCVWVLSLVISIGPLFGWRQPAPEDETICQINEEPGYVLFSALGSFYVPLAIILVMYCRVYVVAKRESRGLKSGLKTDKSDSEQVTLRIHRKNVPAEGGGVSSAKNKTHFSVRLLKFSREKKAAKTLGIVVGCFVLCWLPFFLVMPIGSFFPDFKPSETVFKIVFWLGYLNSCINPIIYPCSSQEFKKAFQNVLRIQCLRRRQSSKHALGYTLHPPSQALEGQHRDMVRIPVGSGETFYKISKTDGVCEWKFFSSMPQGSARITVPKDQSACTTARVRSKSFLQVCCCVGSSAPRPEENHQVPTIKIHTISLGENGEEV

[2] = biological target: T2, Alpha-1B adrenergic receptor (Rattus norvegicus) (UniProt P15823); experiment: Antagonist activity at alpha-1b adrenergic receptor in Wistar rat spleen assessed as inhibition of (-)-phenylephrine-induced contraction; assay type: tissue-based
T2 sequence (whole entry): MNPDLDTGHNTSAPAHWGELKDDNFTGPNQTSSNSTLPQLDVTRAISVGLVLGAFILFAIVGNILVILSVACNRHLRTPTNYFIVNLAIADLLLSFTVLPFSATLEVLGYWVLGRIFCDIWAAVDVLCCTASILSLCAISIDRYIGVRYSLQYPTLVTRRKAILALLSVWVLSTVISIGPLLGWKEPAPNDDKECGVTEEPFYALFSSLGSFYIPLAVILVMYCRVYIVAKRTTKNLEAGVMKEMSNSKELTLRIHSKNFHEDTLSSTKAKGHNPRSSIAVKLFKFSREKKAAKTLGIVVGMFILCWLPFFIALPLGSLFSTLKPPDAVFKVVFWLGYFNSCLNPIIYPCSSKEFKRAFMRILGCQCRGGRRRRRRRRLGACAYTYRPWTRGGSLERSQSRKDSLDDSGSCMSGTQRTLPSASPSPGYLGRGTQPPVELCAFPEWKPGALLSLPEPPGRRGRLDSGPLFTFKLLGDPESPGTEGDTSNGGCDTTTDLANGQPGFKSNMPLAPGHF

[3] = biological target: T3, Alpha-1B adrenergic receptor (Homo sapiens, UniProt P35368); experiment: Displacement of [3H] prazosin from human cloned adrenoceptor alpha 1B expressed in CHO cell membrane incubated for 30 mins by liquid scintillation counter
T3 sequence (P35368 whole entry): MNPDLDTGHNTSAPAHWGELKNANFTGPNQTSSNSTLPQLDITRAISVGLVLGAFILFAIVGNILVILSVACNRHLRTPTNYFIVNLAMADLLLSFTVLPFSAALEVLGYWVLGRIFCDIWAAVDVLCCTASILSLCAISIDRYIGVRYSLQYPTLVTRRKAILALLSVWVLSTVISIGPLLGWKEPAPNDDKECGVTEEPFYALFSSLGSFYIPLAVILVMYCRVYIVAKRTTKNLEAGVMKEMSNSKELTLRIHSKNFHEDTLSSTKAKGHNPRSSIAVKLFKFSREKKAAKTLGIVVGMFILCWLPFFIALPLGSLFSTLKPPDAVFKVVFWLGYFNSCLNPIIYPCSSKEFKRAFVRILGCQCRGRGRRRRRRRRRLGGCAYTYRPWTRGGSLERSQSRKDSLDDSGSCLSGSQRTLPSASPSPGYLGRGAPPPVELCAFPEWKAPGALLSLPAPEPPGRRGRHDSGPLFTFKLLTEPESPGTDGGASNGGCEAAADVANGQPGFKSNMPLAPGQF

[4] = biological target: T4, 5-hydroxytryptamine receptor 1A (Homo sapiens, UniProt P08908); experiment: Displacement of [3H]8-OH-DPAT from human cloned 5HT-1AR transfected in HeLa cells incubated for 30 mins by liquid scintillation counter; assay type: cell-based
T4 sequence (P08908 whole entry): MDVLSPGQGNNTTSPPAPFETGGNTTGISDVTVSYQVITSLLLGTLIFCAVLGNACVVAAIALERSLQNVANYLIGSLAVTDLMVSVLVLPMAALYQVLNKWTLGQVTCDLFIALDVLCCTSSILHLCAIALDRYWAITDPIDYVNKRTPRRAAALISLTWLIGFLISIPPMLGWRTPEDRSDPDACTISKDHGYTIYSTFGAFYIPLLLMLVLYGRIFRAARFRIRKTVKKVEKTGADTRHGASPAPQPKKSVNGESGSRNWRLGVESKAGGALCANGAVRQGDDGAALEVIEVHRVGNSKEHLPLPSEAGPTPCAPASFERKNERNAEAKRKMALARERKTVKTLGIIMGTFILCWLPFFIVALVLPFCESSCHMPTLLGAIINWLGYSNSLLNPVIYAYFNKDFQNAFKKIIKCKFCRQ

[5] = biological target: T5, 5-hydroxytryptamine receptor 1A (Homo sapiens) (UniProt P08908); experiment: Agonist activity at human recombinant 5HT1A receptor expressed in human HeLa cells assessed as increase in [35S]GTPgammaS binding incubated for 20 mins by liquid scintillation counter relative to control; assay type: functional, cell-based
T5 sequence (whole entry): T4 sequence (P08908 whole entry)

[6] = biological target: T5, 5-hydroxytryptamine receptor 1A (Homo sapiens); conditions: HeLa
[7] = biological target: T6, Alpha-1A adrenergic receptor (Homo sapiens, UniProt P35348); experiment: biochemical
T6 sequence (P35348 whole entry): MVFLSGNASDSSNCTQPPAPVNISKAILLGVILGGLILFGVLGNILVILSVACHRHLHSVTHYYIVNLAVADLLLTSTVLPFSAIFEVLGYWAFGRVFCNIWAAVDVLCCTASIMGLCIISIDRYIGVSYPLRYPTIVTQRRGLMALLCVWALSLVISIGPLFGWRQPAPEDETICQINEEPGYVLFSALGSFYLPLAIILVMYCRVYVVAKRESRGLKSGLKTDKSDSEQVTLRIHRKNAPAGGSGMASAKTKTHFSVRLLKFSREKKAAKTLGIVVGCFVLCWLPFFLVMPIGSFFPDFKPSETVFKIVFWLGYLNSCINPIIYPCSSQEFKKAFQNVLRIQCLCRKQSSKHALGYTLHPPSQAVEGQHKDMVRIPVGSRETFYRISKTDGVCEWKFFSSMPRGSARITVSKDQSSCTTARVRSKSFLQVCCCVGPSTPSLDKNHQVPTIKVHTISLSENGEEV
Description: Displacement of [3H] prazosin from human cloned adrenoceptor alpha 1A expressed in CHO cell membrane incubated for 30 mins by liquid scintillation counting

**Q.** For `OCC(CNCCOc1ccccc1)OC(c1ccccc1)c1ccccc1` (configuration not stated), which pKb [1] is on record?
**A.** < 5

**Q.** And the pKb [2]?
**A.** 6.98

**Q.** And the Ki [3]?
**A.** 2290 nM

**Q.** What about the Ki [4] of the same compound?
**A.** 4.57 nM

**Q.** What about the Emax [5] of the same compound?
**A.** 69.5%

**Q.** What about the pD2 [6] of the same compound?
**A.** 7.51

**Q.** And the Ki [7]?
**A.** 141 nM

**Q.** How did the pKb [1] turn out when `COc1ccccc1OCCNCCC1COC(c2ccccc2)(c2ccccc2)O1` (configuration not stated) was run?
**A.** 6.74

**Q.** And the pKb [2]?
**A.** 6.93

**Q.** And the Ki [3]?
**A.** 14.8 nM

**Q.** And the Ki [4]?
**A.** 0.501 nM

**Q.** What about the Emax [5] of the same compound?
**A.** 22.1%

**Q.** What about the pD2 [6] of the same compound?
**A.** 6.16

**Q.** And the Ki [7]?
**A.** 7.24 nM

**Q.** `COc1ccccc1OCCNCC(CO)OC(c1ccccc1)c1ccccc1` (configuration not stated) was tested. Which pKb [1] did it give?
**A.** 6.51

**Q.** What about the pKb [2] of the same compound?
**A.** 7.02

**Q.** And the Ki [3]?
**A.** 91.2 nM

**Q.** And the Ki [4]?
**A.** 1.55 nM

**Q.** What about the Emax [5] of the same compound?
**A.** 90.2%

**Q.** What about the pD2 [6] of the same compound?
**A.** 7.53

**Q.** And the Ki [7]?
**A.** 83.2 nM

**Q.** What does the source list for `c1ccc(OCCNCC2COC(c3ccccc3)(c3ccccc3)OC2)cc1`?
**A.** pKb [1]: 5.52; pKb [2]: 6.76; Ki [3]: 282 nM; Ki [4]: 23.4 nM; Emax [5]: 88.7%; pD2 [6]: 5.87; Ki [7]: 288 nM

**Q.** For `COc1ccccc1OCCNCC[C@H]1CO[C@H](C(c2ccccc2)c2ccccc2)O1` (relative stereo), which pKb [1] is on record?
**A.** 6.23

**Q.** What about the pKb [2] of the same compound?
**A.** 7.13

**Q.** What about the Ki [3] of the same compound?
**A.** 30.9 nM

**Q.** What about the Ki [4] of the same compound?
**A.** 15.5 nM

**Q.** And the Emax [5]?
**A.** 53%

**Q.** And the pD2 [6]?
**A.** 6.24

**Q.** And the Ki [7]?
**A.** 60.3 nM

**Q.** Which pKb [1] does the source give for `COc1ccccc1OCCNCCOC(c1ccccc1)c1ccccc1` here?
**A.** 6.18

**Q.** And the pKb [2]?
**A.** 7.11

**Q.** What about the Ki [3] of the same compound?
**A.** 3020 nM

**Q.** And the Ki [4]?
**A.** 7.24 nM

**Q.** What about the Emax [5] of the same compound?
**A.** 77.3%

**Q.** What about the pD2 [6] of the same compound?
**A.** 7.38

**Q.** And the Ki [7]?
**A.** 44.7 nM

**Q.** Which pKb [1] does the source give for `COc1ccccc1OCCNCC[C@@H]1CO[C@H](C(c2ccccc2)c2ccccc2)O1` (relative stereo) here?
**A.** 6.58

**Q.** And the pKb [2]?
**A.** 6.91

**Q.** What about the Ki [3] of the same compound?
**A.** 64.6 nM

**Q.** And the Ki [4]?
**A.** 25.7 nM

**Q.** What about the Emax [5] of the same compound?
**A.** 82.1%

**Q.** What about the pD2 [6] of the same compound?
**A.** 5.86

**Q.** And the Ki [7]?
**A.** 50.1 nM

**Q.** `COc1ccccc1OCCNCC1COC(c2ccccc2)(c2ccccc2)OC1.O=C(O)C(=O)O` was tested. Which pKb [1] did it give?
**A.** 5.98

**Q.** What about the pKb [2] of the same compound?
**A.** 6.8

**Q.** And the Ki [3]?
**A.** 31.6 nM

**Q.** What about the Ki [4] of the same compound?
**A.** 1.62 nM

**Q.** And the Emax [5]?
**A.** 91.6%

**Q.** And the pD2 [6]?
**A.** 9.22

**Q.** And the Ki [7]?
**A.** 33.9 nM

**Q.** With `c1ccc(OCCNCC2CCOC(c3ccccc3)(c3ccccc3)O2)cc1` (configuration not stated) as the compound, how does the pKb [1] read?
**A.** 6.12

**Q.** And the pKb [2]?
**A.** 6.97

**Q.** And the Ki [3]?
**A.** 56.2 nM

**Q.** And the Ki [4]?
**A.** 1.86 nM

**Q.** What about the Emax [5] of the same compound?
**A.** 79.5%

**Q.** What about the pD2 [6] of the same compound?
**A.** 7.85

**Q.** What about the Ki [7] of the same compound?
**A.** 38.9 nM

**Q.** Which pKb [1] does the source give for `COc1ccccc1OCCNCC1CCOC(c2ccccc2)(c2ccccc2)O1` (configuration not stated) here?
**A.** 6.99

**Q.** What about the pKb [2] of the same compound?
**A.** 7.19

**Q.** What about the Ki [3] of the same compound?
**A.** 15.8 nM

**Q.** What about the Ki [4] of the same compound?
**A.** 0.776 nM

**Q.** What about the Emax [5] of the same compound?
**A.** 65.9%

**Q.** What about the pD2 [6] of the same compound?
**A.** 8.49

**Q.** And the Ki [7]?
**A.** 24.5 nM

**Q.** `c1ccc(OCCNCCOC(c2ccccc2)c2ccccc2)cc1` was tested. Which pKb [1] did it give?
**A.** 7.65

**Q.** What about the pKb [2] of the same compound?
**A.** 7.01

**Q.** And the Ki [3]?
**A.** 25.1 nM

**Q.** And the Ki [4]?
**A.** 1.35 nM

**Q.** What about the Emax [5] of the same compound?
**A.** 78.9%

**Q.** And the pD2 [6]?
**A.** 7.85

**Q.** And the Ki [7]?
**A.** 17 nM
